Publication PMC9269301, “Phytochemical Analysis, Antioxidant, Antimicrobial, and Cytotoxic Activity of Different Extracts of Xanthoparmelia stenophylla Lichen from Stara Planina, Serbia” (Plants, 2022)

What was measured:
C. albicans (isolate) = experiment: Microdilution with resazurin, antifungal; type: cell-based, Candida albicans; details: extracts and usnic acid
Procedure: (§1) The tested methanol, acetone, and n-hexane extracts, as well as the component (usnic acid) of X. stenophylla, were dissolved in 10% dimethyl sulfoxide (DMSO) and then diluted into the nutrient liquid medium. DMSO was obtained from Acros Organics (Fair Lawn, NJ, USA). Resazurin was obtained from Alfa Aesar GmbH & Co. (KG, Karlsruhe, Germany).
(§2) The antimicrobial activity of the extracts and components was tested against 19 microorganisms. The experiment involved 15 strains of bacteria (i.e., 6 standard strains: Staphylococcus aureus ATCC 6538, Bacillus subtilis ATCC 6633, Proteus mirabilis ATCC 12453, Pseudomonas aeruginosa ATCC 27853, Klebsiella pneumoniae ATCC 70063, and Escherichia coli ATCC 25922; 9 isolates: Staphylococcus aureus, Escherichia coli, Salmonella enterica, Salmonella Typhimurium, Proteus mirabilis, Klebsiella pneumoniae, Pseudomonas aeruginosa, Bacillus subtilis, and Bacillus cereus). In addition, four fungal strains (i.e., two standard strains: Candida albicans ATCC 10231 and Aspergillus niger ATCC 16888; two isolates: Saccharomyces cerevisiae and Candida albicans) were tested. All isolates were a generous gift from the Institute of Public Health, Kragujevac. The other microorganisms were provided from the collection held by the Microbiology Laboratory Faculty of Science, University of Kragujevac.
(§3) The bacterial suspensions were prepared by the direct colony method. The turbidity of the initial suspension was adjusted using a densitometer (DEN-1, BioSan, Riga, Latvia). When adjusted to the turbidity of the 0.5 McFarland’s standard (Andrews, 2005) the bacteria suspension contained approximately 10^8 colony-forming units (CFU)/mL, and the suspension of yeast contained 10^6 CFU/mL; 1:100 dilutions of the initial suspension were additionally prepared in sterile 0.85% saline. The suspensions of fungal spores were prepared by gentle stripping of spores from slopes with growing mycelia. The resulting suspensions were 1:1000 diluted in sterile 0.85% saline.
(§4) Antimicrobial activity was tested by determining the minimum inhibitory concentrations (MICs) and minimum microbicidal concentrations (MBCs) using the microdilution plate method with resazurin [56]. The 96-well plates were prepared by dispensing 100 μL of Mueller–Hinton broth for bacteria and Sabouard broth for fungi into each well. A 10 μL aliquot from the stock solution of the tested extract or component was added to the first row of the plate. Then, two-fold serial dilutions were performed using a multichannel pipette. The obtained concentration range was from 10 to 0.08 mg/mL. The method is described in detail in [76].
(§5) Each test included growth control and sterility control.
(§6) Minimum microbicidal concentrations were determined by plating 10 μL of samples from wells where no indicator color change or no mycelia growth was recorded on a nutrient agar medium. At the end of the incubation period, the lowest concentration with no growth (no colony) was defined as the minimum microbicidal concentration.

C. albicans ATCC 10231 = experiment: Microdilution with resazurin, antifungal; type: cell-based, Candida albicans; details: extracts and usnic acid
Procedure: as §1, §2, §3, §4, §5, §6

[1] = system: S. aureus ATCC 6538 biofilm; experiment: Biofilm metabolic activity by resazurin; type: cell-based, Staphylococcus aureus; details: at some concentrations, Figure 4
Procedure: Resazurin (7-hydroxy-3H-phenoxazin-3-one-10-oxide) is a viability dye used to assess the metabolic activity of biofilms. After incubation at 37 °C/48 h, a volume of 10 µL of resazurin indicator solution was added to each well. Plates were incubated in the dark for 3 h at 37 °C. The OD was measured at 590 nm using an enzyme-linked immunosorbent assay (ELISA) plate reader. In addition, the color change from purple to pink indicated the metabolic activity of the formed biofilm.

[2] = system: HeLa cells (cervical adenocarcinoma); experiment: MTT assay; type: cell-based, human; details: HeLa

Q: Which MFC (C. albicans (isolate)) does the source give for usnic acid here?
A: <10 mg/mL

Q: What about the MIC (C. albicans (isolate)) of the same substance?
A: 10 mg/mL

Q: What about the MFC (C. albicans ATCC 10231) of the same substance?
A: <10 mg/mL

Q: And the MIC (C. albicans ATCC 10231)?
A: 10 mg/mL

Q: What about the “Metabolic activity of biofilm compared to the growth control” value [1] of the same substance?
A: lower

Q: What about the “GI50 (50% growth inhibition)” value ([2]; 24 h) of the same substance?
A: >100 µg/mL

Q: And the IC50 ([2]; 24 h)?
A: >100 µg/mL

Q: What about the “TGI (total growth inhibition)” value ([2]; 24 h) of the same substance?
A: >100 µg/mL

Q: And the “GI50 (50% growth inhibition)” value ([2]; 48 h)?
A: 99.16 ± 15.59 µg/mL

Q: What about the IC50 ([2]; 48 h) of the same substance?
A: >100 µg/mL

Q: And the “TGI (total growth inhibition)” value ([2]; 48 h)?
A: >100 µg/mL

Q: What about the “GI50 (50% growth inhibition)” value ([2]; 72 h) of the same substance?
A: 64.28 ± 8.34 µg/mL

Q: And the “TGI (total growth inhibition)” value ([2]; 72 h)?
A: 86.91 ± 5.42 µg/mL

Q: And the IC50 ([2]; 72 h, listed as UA)?
A: >100 µg/mL
